Results as given in publication PMC7407822, “Aldose Reductase Differential Inhibitors in Green Tea” (Biomolecules, 2020).
Like-named read-outs stand apart in the source and are kept apart here.

How the values were obtained:
human recombinant AKR1B1 [1] = biological target: T1, human recombinant AKR1B1 (Homo sapiens, UniProt P15121); experiment: AKR1B1 activity assay (NADPH oxidation at 340 nm), dose-dependent inhibition, IC50; assay type: biochemical
T1 construct: made in house
Method: One unit of enzyme activity is the amount of enzyme that catalyzes the conversion of 1 µmol of substrate/min in the above assay conditions.
The human recombinant AKR1B1 was expressed and purified to electrophoretic homogeneity, as previously described. […] The purified enzyme was stored at −80 °C in a 10 mM sodium phosphate buffer pH 7.0 containing 2 mM DTT and 30% (w/v) glycerol. Before use, AKR1B1 was extensively dialyzed against 10 mM of a sodium phosphate buffer pH 7.0.

human recombinant AKR1B1 [2] = biological target: T1, human recombinant AKR1B1; experiment: Steady state inhibition kinetic analysis (Hanes-Woolf and secondary plots); assay type: biochemical; conditions: for Ki’ (appK’i, ESI complex dissociation constant) / Ki: mean ± SD; for Ki: read-out: Ki (appKi, EI complex dissociation constant)
Method: The AKR1B1 activity was determined at 37 °C, as previously described, monitoring the decrease in absorbance at 340 nm linked to NADPH oxidation (ε340 = 6.22 mM^−1.cm^−1) using a Biochrom Libra S60 spectrophotometer. The standard assay mixture (0.7 mL) contained in a 0.25 M sodium phosphate buffer pH 6.8, 0.18 mM NADPH, 0.4 M ammonium sulfate, 0.5 mM EDTA, and 4.7 mM GAL. One unit of enzyme activity is the amount of enzyme that catalyzes the conversion of 1 µmol of substrate/min in the above assay conditions.
The kinetic analysis of the experimental rate measurements with different substrates (S) in the presence of inhibitors (I) was performed on the classical inhibition model of action. Here, (I) is considered to intervene into a steady state condition of the reaction, being free to interact with the free enzyme (E), the ES complex or with both, through a rapid equilibrium. Data were analyzed by Hanes-Woolf plots. The apparent dissociation constants ^appKi’ (for the ESI complex) and ^appKi (for the EI complex) were determined from secondary plots of 1/^appVmax and ^appKM/^appVmax as a function of the inhibitor concentration, respectively.

AKR1B1 = conditions: known inhibitor co-crystallized with AKR1B1, PDB code 4IGS; cited from earlier work
[3] = 8 mM L-idose, 0.03 mM HNE, 0.07 mM GSHNE

Row | Compound | residual activity for HNE reduction, of activity in the absence of inhibitor (human recombinant AKR1B1 [1]; 0.03 mM HNE, at EGCG concentrations equal to its IC50 for L-idose and GSHNE ([…] and […])) | ARDI action (differential inhibition of L-idose and GSHNE reduction with respect to HNE) (human recombinant AKR1B1 [1]; [3]) | type (model) of inhibition (human recombinant AKR1B1 [2]; substrate GSHNE) | Ki’ (appK’i, ESI complex dissociation constant) (human recombinant AKR1B1 [2]; substrate GSHNE) [µM] | type (model) of inhibition (human recombinant AKR1B1 [2]; substrate HNE) | Ki’ (appK’i, ESI complex dissociation constant) (human recombinant AKR1B1 [2]; substrate HNE) [µM] | type (model) of inhibition (human recombinant AKR1B1 [2]; substrate L-idose) | Ki’ (appK’i, ESI complex dissociation constant) (human recombinant AKR1B1 [2]; substrate L-idose) [µM] | activity as AKR1B1 inhibitor (AKR1B1) | IC50 (human recombinant AKR1B1 [1]; IC50, GSHNE reduction, 0.07 mM GSHNE, 8 mU AKR1B1, 37 °C, pH 6.8) [µM] | IC50 (human recombinant AKR1B1 [1]; IC50, HNE reduction, 0.03 mM HNE, 8 mU AKR1B1, 37 °C, pH 6.8) [µM] | IC50 (human recombinant AKR1B1 [1]; IC50, L-idose reduction, 8 mM L-idose, 8 mU AKR1B1, 37 °C, pH 6.8) [µM] | IC50 (human recombinant AKR1B1 [1]; read-out: IC50 values, unaffected by the nature of the substrate) [µM] | Ki (human recombinant AKR1B1 [2]; substrate GSHNE) [µM] | Ki/Ki’ (human recombinant AKR1B1 [2]; substrate HNE) | Ki (human recombinant AKR1B1 [2]; substrate HNE) [µM] | Ki/Ki’ (human recombinant AKR1B1 [2]; substrate L-idose)
1 | O=C(O[C@@H]1Cc2c(O)cc(O)cc2O[C@@H]1c1cc(O)c(O)c(O)c1)c1cc(O)c(O)c(O)c1 [EGCG, epigallocatechin gallate] | 80–90% | comparable significant (p < 0.0001) ARDI action | apparently purely non-competitive type of inhibition | 144 ± 22 | typical uncompetitive model of action | 116 ± 11 | mixed type of inhibition | 61 ± 9 | – | – | – | – | – | – | – | – | –
2 | Oc1c(F)c(F)c(-c2c(F)c(F)c(O)c(F)c2F)c(F)c1F [JF0064] | – | – | – | – | – | – | – | – | very active at sub micromolar levels | – | – | – | – | – | – | – | –
3 | O=C(O)c1cc(O)c(O)c(O)c1 [GA, gallic acid] | – | still able to act as an ARDI | apparent uncompetitive model of action | 793 ± 102 | apparent uncompetitive model of action | 253 ± 23 | apparent uncompetitive model of action | 103 ± 7 | – | 2500 | 586 | 196 | – | – | – | – | –
4 | Oc1cc(O)c2c(c1)O[C@H](c1cc(O)c(O)c(O)c1)[C@H](O)C2 [EGC, epigallocatechin] | – | completely ineffective as ARDI | competitive inhibitor | – | – | 686 ± 63 | – | 496 ± 35 | – | – | – | – | 500 to 700 | 553 ± 87 | 2.5 | 1680 ± 289 | 2.5
